# Experimental data as given in patent US10065972B2, “Bicyclic or tricyclic heterocyclic compound” (MITSUBISHI TANABE PHARMA CORPORATION, priority 2014, dated 2018).
# Target: human recombinant KAT-II (Homo sapiens (Human), UniProt Q8N5Z0)
# Experiment: KAT-II inhibitory test
# Assay type: biochemical
# Conditions: 3.0 μmol/L kynurenine, 37° C., 1 hr, pH 8.0; kynurenic acid quantified by HPLC
# Description: The compounds described in the above-mentioned Examples were used for the KAT-II inhibitory test.
# Preparation of Human Recombinant KAT-II
# Human recombinant KAT-II was prepared as follows.
# His tag and maltose binding protein tag were added to the N-terminal of a gene encoding human KAT-II (Genbank accession number: AF481738.1), and the obtained gene was incorporated into pET32 (Merck Nihon Millipore), which is an Escherichia coli expression vector. Human recombinant KAT-II produced by BL21(DE3) Escherichia coli (Merck Nihon Millipore, 69450) transformed using the plasmid was purified using an amylose resin column (New England Biolabs, #800-21 L).
# The inhibitory action of the test compound on human recombinant KAT-II was determined by the following method.
# To a reaction mixture (45 μL) containing 3.0 μmol/L kynurenine, 10 μmol/L pyridoxal phosphate, 2.0 ng/μL human recombinant KAT-II, and 150 mmol/L tris(hydroxymethyl)aminomethane-acetate buffer (pH 8.0) was added a 10% dimethyl sulfoxide solution (5 μL) of each test compound prepared, and the mixture was reacted at 37° C. for 1 hr. After the reaction, 50% trichloroacetic acid (5 μL) was added to terminate the reaction.
# The resultant kynurenic acid was quantified as follows by high performance liquid chromatography. An enzyme reaction mixture was separated by an octadecylsilane reversed-phase column (SC-50DS, Eicom Corporation; mobile phase: 250 mmol/L zinc acetate, 50 mmol/L sodium acetate, and 5.0% acetonitrile (pH 6.2)) incubated at 30° C., and kynurenic acid was quantified using a fluorescence detector (RF-20Axs, Shimadzu Corporation) at excitation wavelength 354 nm, detection wavelength 460 nm. The analytical curve was drawn every time by an external standard method. Each test compound was tested by dual measurement at each concentration.
# Chain of human recombinant KAT-II (Q8N5Z0 30-425): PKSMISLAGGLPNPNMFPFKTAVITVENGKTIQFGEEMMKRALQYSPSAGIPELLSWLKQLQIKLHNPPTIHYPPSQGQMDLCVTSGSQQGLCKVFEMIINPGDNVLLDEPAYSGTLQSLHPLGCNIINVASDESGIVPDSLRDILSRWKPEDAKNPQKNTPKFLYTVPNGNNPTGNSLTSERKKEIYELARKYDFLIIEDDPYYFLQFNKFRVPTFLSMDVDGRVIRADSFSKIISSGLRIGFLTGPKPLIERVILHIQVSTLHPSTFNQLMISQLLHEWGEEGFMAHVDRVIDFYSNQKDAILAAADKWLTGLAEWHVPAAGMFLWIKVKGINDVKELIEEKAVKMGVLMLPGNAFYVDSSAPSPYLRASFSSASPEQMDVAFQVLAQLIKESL
row,Compound,IC50 [µM]
1,"Cn1c(N2CCCCC2)nc2sc(N3CCC[C@@H]3C(=O)NCc3ccccc3)nc2c1=O [Example 337, (R)-N-benzyl-1-[6-methyl-7-oxo-5-(piperidin-1-yl)-6,7-dihydro[1,3]thiazolo[5,4-d]pyrimidin-2-yl]pyrrolidine-2-carboxamide]",0.0044
2,"Cc1nc2sc([C@H]3CCCN3C(=O)Oc3ccccc3)nc2c(=O)n1C1CCOCC1 [Example 32, (R)-2-[5-methyl-7-oxo-6-(tetrahydro-2H-pyran-4-yl)-6,7-dihydro[1,3]thiazolo[5,4-d]pyrimidin-2-yl]pyrrolidine-1-carboxylic acid phenyl ester]",0.4
3,"CCc1nc2sc(N3CCC[C@@H]3C(=O)NCc3nnc4ccccn34)nn2c(=O)c1F [Example 686, (R)-1-(7-ethyl-6-fluoro-5-oxo-5H-[1,3,4]thiadiazolo[3,2-a]pyrimidin-2-yl)-N-[([1,2,4]triazolo[4,3-a]pyridin-3-yl)methyl]pyrrolidine-2-carboxamide]",32
4,"Cc1noc(-c2nc3sc(N4CCC[C@@H]4C(=O)NCc4ccc(F)cc4)nc3c(=O)n2C)n1 [Example 213, (R)-N-(4-fluorobenzyl)-1-[6-methyl-5-(3-methyl-[1,2,4]oxadiazol-5-yl)-7-oxo-6,7-dihydro[1,3]thiazolo[5,4-d]pyrimidin-2-yl]pyrrolidine-2-carboxamide]",0.016
5,"CC(C)c1nc2sc([C@H]3CCCN3C(=O)Oc3ccccc3)nn2c(=O)c1Cl [Example 153, (R)-2-[6-chloro-5-oxo-7-(propan-2-yl)-5H-[1,3,4]thiadiazolo[3,2-a]pyrimidin-2-yl]pyrrolidine-1-carboxylic acid phenyl ester]",0.048
6,"CC(C)c1nc2sc([C@H]3CCCN3C(=O)Oc3ccccc3)nc2c(=O)n1C [Example 135, (R)-2-[6-methyl-7-oxo-5-(propan-2-yl)-6,7-dihydro[1,3]thiazolo[5,4-d]pyrimidin-2-yl]pyrrolidine-1-carboxylic acid phenyl ester]",0.023
7,"Cc1ccccc1CNC(=O)[C@H]1CCCN1c1nc2c(=O)n(C)c(C)nc2s1 [Example 229, (R)-1-(5,6-dimethyl-7-oxo-6,7-dihydro-[1,3]thiazolo[5,4-d]pyrimidin-2-yl)-N-(2-methylbenzyl)pyrrolidine-2-carboxamide]",0.021
8,"O=C(NC1(c2ccccc2)CC1)[C@H]1CCCN1c1nn2c(=O)c3ccccc3nc2s1 [Example 655, (R)-1-(5-oxo-5H-[1,3,4]thiadiazolo[2,3-b]quinazolin-2-yl)-N-(1-phenylcyclopropyl)pyrrolidine-2-carboxamide]",0.029
9,"CN(C)CCOc1nc2sc(N3CCC[C@@H]3C(=O)NCc3ccccc3)nc2c(=O)n1C [Example 406, (R)-N-benzyl-1-{5-[2-(N′,N′-dimethylamino)ethoxy]-6-methyl-7-oxo-6,7-dihydro[1,3]thiazolo[5,4-d]pyrimidin-2-yl}pyrrolidine-2-carboxamide]",0.37
10,"Cn1c(CN2Cc3ccccc3C2)nc2sc(N3CCC[C@@H]3C(=O)NCc3ccccc3)nc2c1=O [Example 328, (R)-N-benzyl-1-{5-[(1,3-dihydro-2H-isoindol-2-yl)methyl]-6-methyl-7-oxo-6,7-dihydro[1,3]thiazolo[5,4-d]pyrimidin-2-yl}pyrrolidine-2-carboxamide]",0.017
11,"O=C(NCc1ccccc1)[C@H]1CCCN1c1nc2c(=O)n(C3COC3)c(C(F)(F)F)nc2s1 [Example 251, (R)-N-benzyl-1-[6-(oxetan-3-yl)-7-oxo-5-trifluoromethyl-6,7-dihydro-[1,3]thiazolo[5,4-d]pyrimidin-2-yl]pyrrolidine-2-carboxamide]",0.04
12,"CCc1nn(C2CCOCC2)c(=O)c2nc(N3CCC[C@@H]3C(=O)NCc3ccccc3)sc12 [Example 613, (R)-N-benzyl-1-[7-ethyl-4-oxo-5-(tetrahydro-2H-pyran-4-yl)-4,5-dihydro[1,3]thiazolo[4,5-d]pyridazin-2-yl]pyrrolidine-2-carboxamide]",0.022
13,"Cn1c(C(F)(F)F)nc2sc(N3CCC[C@@H]3C(=O)NCc3ccccc3)nc2c1=O [Example 190, (R)-N-benzyl-1-(6-methyl-7-oxo-5-trifluoromethyl-6,7-dihydro-[1,3]thiazolo[5,4-d]pyrimidin-2-yl)pyrrolidine-2-carboxamide]",0.026
14,"CCn1c(C(F)F)nc2sc(N3CCC[C@@H]3C(=O)N[C@@H](c3ccccc3)C3CC3)nc2c1=O [Example 299, (R)-N-[(R)-cyclopropyl(phenyl)methyl]-1-(5-difluoromethyl-6-ethyl-7-oxo-6,7-dihydro-[1,3]thiazolo[5,4-d]pyrimidin-2-yl)pyrrolidine-2-carboxamide]",0.46
15,"CCc1nc2sc(N3CC(F)(F)C[C@@H]3C(=O)NCc3ccccc3)nn2c(=O)c1F [Example 650, (R)-N-benzyl-1-(7-ethyl-6-fluoro-5-oxo-5H-[1,3,4]thiadiazolo[3,2-a]pyrimidin-2-yl)-4,4-difluoropyrrolidine-2-carboxamide]",2.2
16,"CCc1nc2sc([C@H]3CCCN3C(=O)Oc3ccccc3)nc2c(=O)[nH]1 [Example 114, (R)-2-(5-ethyl-7-oxo-6,7-dihydro[1,3]thiazolo[5,4-d]pyrimidin-2-yl)pyrrolidine-1-carboxylic acid phenyl ester]",0.029
17,"Cn1c(C(F)(F)F)nc2ccc(N3CCC[C@@H]3C(=O)NCc3ccccc3)nc2c1=O [Example 707, (R)-N-benzyl-1-(3-methyl-4-oxo-2-trifluoromethyl-3,4-dihydropyrido[3,2-d]pyrimidin-6-yl)pyrrolidine-2-carboxamide]",0.68
18,"CC(C)c1nc2ccc(N3CCC[C@@H]3C(=O)NCc3ccccc3)nn2c(=O)c1F [Example 722, (R)-N-benzyl-1-[3-fluoro-4-oxo-2-(propan-2-yl)-4H-pyrimido[1,2-b]pyridazin-7-yl]pyrrolidine-2-carboxamide]",0.089
19,"CN(C)c1nc2sc(N3CCC[C@@H]3C(=O)NCc3ccccc3)nc2c(=O)n1C [Example 335, (R)-N-benzyl-1-[5-(N′,N′-dimethylamino)-6-methyl-7-oxo-6,7-dihydro[1,3]thiazolo[5,4-d]pyrimidin-2-yl]pyrrolidine-2-carboxamide]",0.0056
20,"Cn1c(C(F)(F)F)cc2sc(N3CCC[C@@H]3C(=O)NCc3ccccc3)nc2c1=O [Example 631, (R)-N-benzyl-1-(5-methyl-4-oxo-6-trifluoromethyl-4,5-dihydro[1,3]thiazolo[4,5-c]pyridin-2-yl)pyrrolidine-2-carboxamide]",0.055
21,"O=C(NCc1ccccc1)[C@H]1CCCN1c1nn2c(=O)c3c(nc2s1)CCCC3 [Example 639, (R)-N-benzyl-1-(5-oxo-6,7,8,9-tetrahydro-5H-[1,3,4]thiadiazolo[2,3-b]quinazolin-2-yl)pyrrolidine-2-carboxamide]",0.049
22,"Cc1nc2sc(N3CCC[C@@H]3C(=O)NCc3ccccc3)nn2c(=O)c1C(C)C [Example 647, (R)-N-benzyl-1-[7-methyl-5-oxo-6-(propan-2-yl)-5H-[1,3,4]thiadiazolo[3,2-a]pyrimidin-2-yl]pyrrolidine-2-carboxamide]",0.058
23,"CC(C)c1cc(=O)n2nc([C@H]3CCCN3C(=O)NCc3ccccc3)sc2n1 [Example 157, (R)-N-benzyl-2-[5-oxo-7-(propan-2-yl)-5H-[1,3,4]thiadiazolo[3,2-a]pyrimidin-2-yl]pyrrolidine-1-carboxamide]",0.47
24,"CN(Cc1nc2sc(N3CCC[C@@H]3C(=O)NCc3ccccc3)nc2c(=O)n1C)CC(F)(F)F [Example 333, (R)-N-benzyl-1-[6-methyl-5-{[N′-methyl-N′-(2,2,2-trifluoroethyl)amino]methyl}-7-oxo-6,7-dihydro[1,3]thiazolo[5,4-d]pyrimidin-2-yl]pyrrolidine-2-carboxamide]",0.049
25,"CCc1nc2sc(N3CCC[C@@H]3C(=O)CNc3ccccc3)nc2c(=O)n1C [Example 579, 5-ethyl-6-methyl-2-[(R)-2-(2-phenylaminoacetyl)pyrrolidin-1-yl][1,3]thiazolo[5,4-d]pyrimidin-7(6H)-one]",0.01
26,"C[C@@H](NC(=O)[C@H]1CCCN1c1nc2c(=O)n(C)c(C(C)(F)F)nc2s1)c1ccccc1 [Example 267, (R)-1-[5-(1,1-difluoroethyl)-6-methyl-7-oxo-6,7-dihydro[1,3]thiazolo[5,4-d]pyrimidin-2-yl]-N-((R)-1-phenylethyl)pyrrolidine-2-carboxamide]",0.022
27,"CC(C)c1cc(=O)n2nc([C@H]3CCCN3C(=O)N3CCc4ccccc43)sc2n1 [Example 170, 2-[(R)-1-(2,3-dihydro-indole-1-carbonyl)pyrrolidin-2-yl]-7-(propan-2-yl)-5H-[1,3,4]thiadiazolo[3,2-a]pyrimidin-5-one]",0.88
28,"O=C(NCc1ccccc1)[C@H]1CCCN1c1nc2c(=O)[nH]c(C3CC3)c(Cl)c2s1 [Example 623, (R)-N-benzyl-1-(7-chloro-6-cyclopropyl-4-oxo-4,5-dihydro[1,3]thiazolo[4,5-c]pyridin-2-yl)pyrrolidine-2-carboxamide]",0.022
